Test results as given in US6924298B2, “2-(3,5-Disubstituted-4-pyridyl)-4-(thienyl, thiazolyl or arylphenyl)-1,3-oxazoline compounds” (Dow AgroSciences LLC, priority 2000, dated 2005).
Read-outs that look alike come from different tables or passages of the source.

Key:
Format in all cases: in vivo
[1] = test system: tobacco budworm (Heliothis virescens); assay: Insecticidal test for tobacco budworm, treated cotton cotyledon leaf disc; settings: for pest or weed control at 400 ppm: Heliothis virescens, foliar, 120 h, read-out: TBW: activity at 400 ppm against tobacco budworm (% Control rating)
Procedure: (§1) Insecticidal Test for Tobacco Budworm (Heliothis virescens), Beet Armyworm (Spodoptera exigua), and Cabbage Looper (Trichoplusia ni).
(§2) To prepare the test solution, the test compound was formulated at 400 ppm in 7.5 mL of 2 acetone:1 tap water. 250 μL of the test solution was pipetted upon the surface of 8 mL of lepidopteran diet (modified Shorey) contained in each of five one-ounce plastic cups (one cup=1 replication). A second-instar beet armyworm was placed upon the treated diet in each cup once the solvent had air-dried. The solutions remaining after completing applications to the one-ounce cups were then used as leaf-dip solutions for 3.5 cm leaf discs cut from cabbage leaves and cotton cotyledons. Five discs of each type of plant were dipped until thoroughly coated into each rate of each compound (=5 replications of each treatment). After air-drying, the treated leaf discs were placed individually into one-ounce plastic cups. Each dried, treated cotton cotyledon disc was infested with a 2nd instar tobacco budworm larva, and each cabbage leaf disc was infested with a 2nd instar cabbage looper larva. Cups containing the treated substrates and larvae were capped and then held in a growth chamber at 25° C., 50-55% RH, and 14 hr light: 10 hr dark for 5 days.

[2] = test system: beet armyworm (Spodoptera exigua); assay: Insecticidal test for beet armyworm, treated lepidopteran diet; settings: for pest or weed control at 400 ppm: Spodoptera exigua, 120 h, read-out: BAW: activity at 400 ppm against beet armyworm (% Control rating)
Procedure: as §1, §2

[3] = test system: cabbage looper (Trichoplusia ni); assay: Insecticidal test for cabbage looper, treated cabbage leaf disc; settings: for pest or weed control at 400 ppm: Trichoplusia ni, foliar, 120 h, read-out: CL: activity at 400 ppm against cabbage looper (% Control rating)
Procedure: as §1, §2

[4] = test system: cotton aphid (Aphis gossypii); assay: Insecticidal test for cotton aphid, spray on infested squash cotyledons; settings: for pest or weed control at 50 ppm: Aphis gossypii, 72 h, read-out: CA: activity at 50 ppm against cotton aphid (% Control rating)
Procedure: Insecticidal Test for Cotton Aphid (Aphis gossypii)
To prepare spray solutions, 1 mg of each test compound was dissolved into 1 mL of a 90:10 acetone:ethanol solvent. This 1 mL of chemical solution was added to 19 mL of water containing 0.05% Tween 20 surfactant to produce a 50 ppm spray solution.
Squash cotyledons were infested with cotton aphid (all life stages)16-20 hours prior to application of spray solution. The solution was sprayed on both sides of each infested squash cotyledon (0.5 mL×2 each side) with a sweeping action until runoff. The plants were allowed to air dry and held for 3 days in a controlled room at 26° C. and 40% RH after which time the test was graded. Grading was by actual count using a dissecting microscope and comparison of test counts to the untreated check. Results are given in Tables 1-4 as percent control based on population reduction versus the untreated.

[5] = test system: two-spotted spider mite (Tetranychus urticae); assay: Insecticidal test for two-spotted spider mite, ovicide method on cotton leaf discs; settings: hatched larvae after 6 days; for pest or weed control: Tetranychus urticae, foliar, 144 h, read-out: SM: activity against two-spotted spider mite (% Control rating)
Procedure: Insecticidal Test for Two-Spotted Spider Mite (Tetranychus urticae) Ovicide Method: Ten adult female two-spotted spider mites were placed on eight 2.2 cm leaf discs of cotton leaf, allowed to oviposit over 24 hours, and thereafter removed. […] Discs were placed on an agar substrate and held at 24° C. and 90% RH for 6 days.

[6] = test system: sweetpotato whitefly (Bemisia tabacia); assay: Insecticidal test for sweetpotato whitefly, spray on cotton plants; settings: 312 h, 200 ppm spray, large nymphs counted after 13 days, read-out: WF: activity at 200 ppm against whitefly (% Control rating)
Procedure: Insecticidal Test for Sweetpotato Whitefly (Bemisia tabacia)
Four mg of each test compound was dissolved by adding 4 mL of a 90:10 acetone:ethanol solvent mixture to the vial containing the sample compound. This solution was added to 16 mL of water containing 0.05% Tween 20 surfactant to produce 20 mL of a 200 ppm spray solution.
Five-week-old cotton plants reared in a greenhouse were stripped of all foliage except for the two uppermost true leaves that were greater than 5 cm in diameter.
These plants were then placed into a laboratory colony of whiteflies for two days for oviposition by the colony females. All whiteflies were then removed from the test plants with pressurized air. The spray solution was then applied to the test plants with a hand-held syringe fitted with hollow cone nozzle. One mL of spray solution was applied to each leaf top and bottom for a total of 4 mL per plant. Four replications of each test compound utilized a total of 16 mL spray solution. Plants were air dried and then placed in a holding chamber (28° C. and 60% RH) for 13 days. Compound efficacy was evaluated by counting, under an illuminated magnifying glass, the number of large nymphs (3rd-4th instar) per leaf.
Percent control based on reduction of large nymphs of a test compound compared to solution-only (no test compound) sprayed plants is reported in Tables 1-4.

[7] = 400 ppm, leaf-dip cotton cotyledon disc, 2nd instar larvae, 5 days
[8] = 400 ppm, treated diet surface, second-instar larvae, 5 days
[9] = 400 ppm, leaf-dip cabbage leaf disc, 2nd instar larvae, 5 days
[10] = 50 ppm spray, squash cotyledons, all life stages, 3 days

Molecule | pest or weed control at 400 ppm [1, 7] [%] | pest or weed control at 400 ppm [2, 8] [%] | pest or weed control at 400 ppm [3, 9] [%] | pest or weed control at 50 ppm [4, 10] [%] | pest or weed control [5] [%] | pest or weed control at 200 ppm [6] [%] | also measured
Cc1cc(-c2ccc(OC(F)(F)F)cc2)ccc1C1COC(c2c(Cl)cncc2Cl)=N1 (centres unmarked) [Compound 44, 2-(3,5-dichloro-4-pyridinyl)-4-(4-(4-trifluoromethoxyphenyl)-2-methylphenyl)-oxazoline] | 90 to 100 | 90 to 100 | 90 to 100 | 80 to 89 | 90 to 100 | 50 to 59 | 
Cc1cc(-c2ccc(C(F)(F)F)cc2)ccc1C1COC(c2c(Cl)cncc2Cl)=N1 (centres unmarked) [Compound 43, 2-(3,5-dichloro-4-pyridinyl)-4-(4-(4-trifluoromethylphenyl)-2-methylphenyl)-oxazoline] | 90 to 100 | 90 to 100 | 90 to 100 | 80 to 89 | 80 to 89 | < 50 | 
FC(F)(F)Oc1ccc(-c2ccc(C3COC(c4c(Cl)cncc4Cl)=N3)cc2)cc1 (centres unmarked) [Compound 6] |  | 90 to 100 | 90 to 100 | 90 to 100 | 90 to 100 | < 50 | 
FC(F)(F)c1ccc(-c2ccc(C3COC(c4c(Cl)cncc4Cl)=N3)cc2)cc1 (centres unmarked) [Compound 5] | < 50 | 90 to 100 | 90 to 100 | 80 to 89 | 90 to 100 | < 50 | 
C[C@H]1OC(c2c(Cl)cncc2Cl)=N[C@@H]1c1ccc(-c2ccc(OC(F)(F)F)cc2)cc1 [Compound 48] | 90 to 100 |  | 90 to 100 | 80 to 89 | 50 to 59 | < 50 | 
Cc1cccc(-c2ccc(C3COC(c4c(Cl)cncc4Cl)=N3)cc2)c1 (centres unmarked) [Compound 27] |  |  |  |  | 80 to 89 |  | pest or weed control at 400 ppm [1]: < 50%; pest or weed control at 400 ppm [2]: 90 to 100%; pest or weed control at 400 ppm [3]: 90 to 100%; pest or weed control at 50 ppm [4]: 90 to 100%
FC(F)(F)c1ccc(-c2ccc(C3COC(c4c(Cl)cncc4Cl)=N3)cc2)c(Cl)c1 (centres unmarked) [Compound 17] |  | 90 to 100 | 90 to 100 | 60 to 69 | 90 to 100 | < 50 | 
Fc1cncc(F)c1C1=NC(c2ccc(I)cc2)CO1 (centres unmarked) [Compound 38, 2-(3,5-difluoro-4-pyridinyl)-4-(4-iodophenyl)oxazoline] |  | 70 to 79 |  | < 50 | 90 to 100 | 90 to 100 | 
C[S+]([O-])c1ccc(-c2ccc(C3COC(c4c(Cl)cncc4Cl)=N3)cc2)cc1 (centres unmarked) [Compound 36] | 60 to 69 |  | 90 to 100 | < 50 |  | < 50 | 
4-[5-Methyl-4-(4′-trifluoromethoxybiphenyl)-4-yl)-4,5-dihydro-oxazol-2-yl]-3,5-dichloropyridines [Compound 47] |  |  |  |  |  |  | TBW: activity at 400 ppm against tobacco budworm (% Control rating) [1, 7]: A (90-100); BAW: activity at 400 ppm against beet armyworm (% Control rating) [2, 8]: A (90-100); CL: activity at 400 ppm against cabbage looper (% Control rating) [3, 9]: A (90-100); CA: activity at 50 ppm against cotton aphid (% Control rating) [4, 10]: A (90-100); SM: activity at 2.5 ppm against two-spotted spider mite (% Control rating) [5]: A (90-100)
Fc1cncc(F)c1C1=NC(c2ccc(-c3ccc(C(F)(F)F)cc3)cc2)CO1 (centres unmarked) [Compound 39, 2-(3,5-difluoro-4-pyridinyl)-4-(4-(4-trifluoromethylphenyl)phenyl)-oxazoline] |  | 80 to 89 | 90 to 100 | < 50 | 90 to 100 | < 50 | 
Clc1ccc(-c2ccc(C3COC(c4c(Cl)cncc4Cl)=N3)cc2)cc1 (centres unmarked) [Compound 16] |  |  |  |  | 90 to 100 |  | pest or weed control at 400 ppm [1]: 60 to 69%; pest or weed control at 400 ppm [2]: 90 to 100%; pest or weed control at 400 ppm [3]: 90 to 100%; pest or weed control at 50 ppm [4]: < 50%
Fc1ccc(-c2ccc(C3COC(c4c(Cl)cncc4Cl)=N3)cc2)cc1 (centres unmarked) [Compound 21] |  | 80 to 89 |  | 90 to 100 | 90 to 100 | < 50 | 
CC(C)c1ccc(-c2ccc(C3COC(c4c(Cl)cncc4Cl)=N3)cc2)cc1 (centres unmarked) [Compound 30] |  | 90 to 100 | 60 to 69 | < 50 | 70 to 79 | < 50 | 
Fc1c(-c2ccc(C3COC(c4c(Cl)cncc4Cl)=N3)cc2)cccc1C(F)(F)F (centres unmarked) [Compound 31] | 60 to 69 |  |  |  | < 50 |  | 
Fc1cc(C(F)(F)F)ccc1-c1ccc(C2COC(c3c(Cl)cncc3Cl)=N2)cc1 (centres unmarked) [Compound 32] | 90 to 100 | 90 to 100 |  | 70 to 79 | 90 to 100 | 90 to 100 | 
Fc1cccc(-c2ccc(C3COC(c4c(Cl)cncc4Cl)=N3)cc2)c1 (centres unmarked) [Compound 19] |  |  | 60 to 69 | < 50 | 90 to 100 | < 50 | 
Fc1ccc(-c2ccc(C3COC(c4c(Cl)cncc4Cl)=N3)cc2)cc1C(F)(F)F (centres unmarked) [Compound 29] | 80 to 89 | 80 to 89 | 90 to 100 | < 50 | 70 to 79 |  | 
